Results published in patent US4310590A (priority 1979, dated 1982).
≈ marks a conversion by molar mass, not a printed value.

Columns and labels:
Erysiphe polygoni = test: whole plant or invertebrate; type: in vivo; conditions: read-out: Disease Control Level, BPM
Phytophthora infestans = test: whole plant or invertebrate; type: in vivo
Botrytis cinerea = test: whole plant or invertebrate; type: in vivo; conditions: for pest or weed control at 300 ppm / pest or weed control at 38 ppm / pest or weed control at 75 ppm: Botrytis cinerea, read-out: Disease Control Level, BOT; for Disease Control Level, BOT: 150 ppm
Plasmopora viticola = test: whole plant or invertebrate; type: in vivo; conditions: for pest or weed control at 300 ppm / pest or weed control at 38 ppm / pest or weed control at 75 ppm: read-out: Disease Control Level, GDM
Piricularia oryzae = test: whole plant or invertebrate; type: in vivo; conditions: for Disease Control Level, RB: 150 ppm
[1] = test system: Puccinia graminis f. sp. tritici; test: whole plant or invertebrate; type: in vivo, Puccinia graminis f. sp. tritici race 15B-2; conditions: for Disease Control Level, WSR: 150 ppm, wheat seedlings
Staphylococcus aureus = test: Serial Dilution Test (Broth Titer Test), antibacterial, Staphylococcus aureus; type: cell-based; conditions: for MIC: Staphylococcus aureus, read-out: SDT, MIC; for SDT, MIC: in vitro serial dilution test, S = Staphylococcus aureus
Protocol: (§1) Antibacterial and antifungal activity were evaluated by the Serial Dilution Test (Broth Titer Test) wherein a series of broths containing varying dilutions of a test compound and an organism are halved starting with 1:1,000. The values shown represent the maximum dilution in parts per million at which the compound under evaluation renders complete control of the organism. Pseudomonas aeruginosa (P), Staphylococcus aureus (S), and Escherichia coli (E) were the bacterial organisms employed in this test, and the fungi employed were Aspergillus niger (A) and Rhizopus stolonifer (R).
(§2) ^a In vitro serial dilution test (SDT), minimum inhibitory
(§3) concentrations (MIC) against E = E. coli, P = Ps. aeruginosa, S =
(§4) Staphylococcus aureus, A = A. niger, and R = Rhizopus stolonifer are give
(§5) in parts per million of a biocide.

Helminthosporium teres = test: whole plant or invertebrate; type: in vivo; conditions: Pyrenophora teres, in Hordeum vulgare, read-out: Disease Control Level, BH
Ps. aeruginosa = test: Serial Dilution Test (Broth Titer Test), antibacterial, Ps. aeruginosa; type: cell-based, Pseudomonas aeruginosa; conditions: for MIC: Pseudomonas aeruginosa, read-out: SDT, MIC; for SDT, MIC: in vitro serial dilution test, P = Ps. aeruginosa
Protocol: as §1, §2, §3, §4, §5

A. niger = test: Serial Dilution Test (Broth Titer Test), antifungal, A. niger; type: cell-based, Aspergillus niger; conditions: in vitro serial dilution test; for MIC: Aspergillus niger, read-out: SDT, MIC
Protocol: as §1, §2, §3, §4, §5

Rhizopus stolonifer = test: Serial Dilution Test (Broth Titer Test), antifungal, Rhizopus stolonifer; type: cell-based; conditions: in vitro serial dilution test, R = Rhizopus stolonifer
Protocol: as §1, §2, §3, §4, §5

E. coli = test: Serial Dilution Test (Broth Titer Test), antibacterial, E. coli; type: cell-based, Escherichia coli; conditions: for MIC: Escherichia coli, read-out: SDT, MIC; for SDT, MIC: in vitro serial dilution test, E = E. coli
Protocol: as §1, §2, §3, §4, §5

[2] = Phytophthora infestans, in Solanum lycopersicum, read-out: Disease Control Level, TLB
[3] = Pyricularia oryzae, read-out: Disease Control Level, RB
[4] = Puccinia graminis, read-out: Disease Control Level, WSR

SMILES	pest or weed control at 300 ppm (Erysiphe polygoni) [%]	pest or weed control at 300 ppm (Phytophthora infestans; [2]) [%]	pest or weed control at 300 ppm (Botrytis cinerea) [%]	pest or weed control at 300 ppm (Plasmopora viticola) [%]	Disease Control Level, RB (Piricularia oryzae)	pest or weed control at 38 ppm (Piricularia oryzae; [3]) [%]	pest or weed control at 75 ppm (Piricularia oryzae; [3]) [%]	pest or weed control at 300 ppm [1, 4] [%]	MIC (Staphylococcus aureus) [µg/mL]	pest or weed control at 300 ppm (Helminthosporium teres) [%]	Disease Control Level, BOT (Botrytis cinerea)	pest or weed control at 38 ppm (Botrytis cinerea) [%]	pest or weed control at 75 ppm (Botrytis cinerea) [%]	Disease Control Level, GDM (Plasmopora viticola; 150 ppm)	Disease Control Level, WSR [1]	further results
Cc1c(SC(=S)N(C)C)sn(CCc2ccccc2)c1=O [Example 7]	50	50	50	50	B/E	90 to 96	90 to 96	97 to 100	> 500	50	–	–	–	–	–	pest or weed control at 38 ppm [1, 4]: 50%; pest or weed control at 75 ppm [1, 4]: 50%; pest or weed control at 150 ppm [1, 4]: 50%
Cc1c(SC(=S)N(C)C)sn(C2CCCCC2)c1=O [Example 11]	50	50	50	50	–	–	–	70 to 89	500 (≈ 1580 µM)	50	–	–	–	–	–	MIC (Ps. aeruginosa): 500 µg/mL (≈ 1580 µM); pest or weed control at 300 ppm (Piricularia oryzae; [3]): 50%; MIC (A. niger): 500 µg/mL (≈ 1580 µM); MIC (Rhizopus stolonifer; read-out: SDT, MIC): 250 µg/mL (≈ 790 µM); MIC (E. coli): 500 µg/mL (≈ 1580 µM)
Cn1sc(SC(=S)N2CCCC2)cc1=O [Example 13, 2-Methyl-5-[N,N-tetramethylenethiocarbamoyl]thio-4-isothiazolin-3-one]	50	90 to 96	97 to 100	97 to 100	A/E	90 to 96	90 to 96	90 to 96	> 500	50	A/E	70 to 89	70 to 89	A/E	C/E	Disease Control Level, TLB (Phytophthora infestans; 150 ppm, tomato seedlings): A/E; pest or weed control at 38 ppm (Phytophthora infestans; [2]): 50%; pest or weed control at 75 ppm (Phytophthora infestans; [2]): 90 to 96%; pest or weed control at 38 ppm (Plasmopora viticola): 97 to 100%; pest or weed control at 75 ppm (Plasmopora viticola): 97 to 100%; pest or weed control at 300 ppm (Piricularia oryzae; [3]): 90 to 96%; pest or weed control at 38 ppm [1, 4]: 70 to 89%; pest or weed control at 75 ppm [1, 4]: 70 to 89%
Cc1c(SC(=S)N(C)C)sn(-c2ccc(Cl)cc2)c1=O [Example 9]	–	–	–	–	A/A	–	–	–	–	–	C/C	–	–	A/E	–	SDT, MIC (Ps. aeruginosa): 500 PPM; SDT, MIC (Staphylococcus aureus): 500 PPM; SDT, MIC (A. niger): 500 PPM; SDT, MIC (Rhizopus stolonifer): 250 PPM; SDT, MIC (E. coli): 500 PPM
CN(C)C(=S)Sc1sn(CCc2ccccc2)c(=O)c1Cl [Example 3, 4-Chloro-5-(N,N-dimethylthiocarbamoyl)thio-2-phenethyl-4-isothiazolin-3-one]	50	50	50	50	–	–	–	70 to 89	> 500	50	–	–	–	–	–	pest or weed control at 300 ppm (Piricularia oryzae; [3]): 50%
CCCCCCCCn1sc(SC(=S)N(C)C)cc1=O [Example 6]	50	–	50	50	–	–	–	97 to 100	–	50	–	–	–	–	–	–
CN(C)C(=S)Sc1cc(=O)n(CCc2ccccc2)s1 [Example 4]	50	50	90 to 96	90 to 96	–	50	50	97 to 100	> 500	50	A/C	90 to 96	90 to 96	A/A	E/E	pest or weed control at 38 ppm (Plasmopora viticola): 90 to 96%; pest or weed control at 75 ppm (Plasmopora viticola): 97 to 100%; pest or weed control at 150 ppm (Piricularia oryzae; [3]): 97 to 100%
Cc1c(SC(=S)N(C)C)sn(-c2ccc(Br)cc2)c1=O [Example 8]	–	–	–	–	A/E	–	–	–	–	–	–	–	–	A/B	C/C	SDT, MIC (Ps. aeruginosa): 500 PPM; SDT, MIC (Staphylococcus aureus): 500 PPM; SDT, MIC (A. niger): 500 PPM; SDT, MIC (Rhizopus stolonifer): 250 PPM; SDT, MIC (E. coli): 500 PPM
Cc1c(SC(=S)N(C)C)sn(-c2ccccc2)c1=O [Example 2, 5-(N,N-Dimethylthiocarbamoyl)thio-4-methyl-2-phenyl-4-isothiazolin-3-one]	50	50	90 to 96	50	A/E	90 to 96	90 to 96	70 to 89	–	50	B/C	70 to 89	90 to 96	–	–	MIC (Ps. aeruginosa): > 500 µg/mL; MIC (A. niger): 500 µg/mL (≈ 1610 µM); MIC (E. coli): 500 µg/mL (≈ 1610 µM)
CN(C)C(=S)Sc1cc(=O)n(Cc2ccccc2)s1 [Example 1, 2-Benzyl-5-(N,N-dimethylthiocarbamoyl)thio-4-isothiazolin-3-one]	50	50	90 to 96	90 to 96	A/E	97 to 100	97 to 100	90 to 96	> 500	97 to 100	B/B	70 to 89	70 to 89	C/C	C/C	pest or weed control at 38 ppm (Plasmopora viticola): 50 to 69%; pest or weed control at 75 ppm (Plasmopora viticola): 70 to 89%; pest or weed control at 38 ppm [1, 4]: 50%; pest or weed control at 75 ppm [1, 4]: 50%; pest or weed control at 38 ppm (Helminthosporium teres): 50%; pest or weed control at 75 ppm (Helminthosporium teres): 50%; pest or weed control at 150 ppm (Helminthosporium teres): 50%
N#Cc1cc(=O)n(CCc2ccccc2)s1 [Example 15, 5-Cyano-2-phenethyl-4-isothiazolin-3-one]	–	–	–	–	–	–	–	–	> 500	–	–	–	–	–	–	–
O=c1cc(SC(=S)N(Cc2ccccc2)Cc2ccccc2)sn1CCc1ccccc1 [Example 12, 5-(N,N-Dibenzylthiocarbamoyl)thio-2-phenethyl-4-isothiazolin-3-one]	50	50	50	50	–	–	–	50	–	50	–	–	–	–	–	pest or weed control at 300 ppm (Piricularia oryzae; [3]): 50%
CN(C)C(=S)Sc1cc(=O)n(C)s1 [Example 5]	50	50	90 to 96	90 to 96	A/E	97 to 100	97 to 100	90 to 96	–	97 to 100	A/C	90 to 96	97 to 100	A/A	C/E	Disease Control Level, GDM (Plasmopora viticola; 19 ppm): C/E; pest or weed control at 38 ppm (Plasmopora viticola): 97 to 100%; pest or weed control at 75 ppm (Plasmopora viticola): 97 to 100%; MIC (Ps. aeruginosa): > 500 µg/mL; pest or weed control at 19 ppm (Piricularia oryzae; [3]): 97 to 100%; pest or weed control at 75 ppm [1, 4]: 50%; MIC (A. niger): 125 µg/mL (≈ 533 µM); pest or weed control at 19 ppm (Helminthosporium teres; 19 ppm): 50%; pest or weed control at 38 ppm (Helminthosporium teres): 50%; pest or weed control at 75 ppm (Helminthosporium teres): 50%; pest or weed control at 150 ppm (Helminthosporium teres): 50%; MIC (E. coli): 500 µg/mL (≈ 2130 µM)
Cc1c(SC(=S)N(C)C)sn(-c2ccc(Cl)cc2Cl)c1=O [Example 10]	–	–	–	–	–	–	–	–	–	–	–	–	–	–	–	SDT, MIC (Ps. aeruginosa): 500 PPM; SDT, MIC (Staphylococcus aureus): 500 PPM; SDT, MIC (A. niger): 500 PPM; SDT, MIC (Rhizopus stolonifer): 250 PPM; SDT, MIC (E. coli): 500 PPM
